Laboratory results published in patent US20040116420A1 (priority 2001, published 2004).

Key:
HSV-1 protease = biological target: T1, HSV-1 protease (Human herpesvirus 1, UniProt P10210); experiment: Enzymatic assay for HSV-1 protease (assembly) inhibitor, fluorescence polarization; type: biochemical; conditions: read-out: HSV-1 Enzyme inhibition IC50
T1 construct: 6xHis (N); made in house; host or cells: baculovirus expression system
Description: An enzymatic assay method for an HSV-1 protease (assembly) inhibitor
The activity of an assembly protease was determined by fluorescence polarization. Biotin-gamma-amino butyrate-[…]-DTAF was used as a fluorescent substrate in accordance with an HSV-1 release and cleavage site. […] Changes in the sizes of fluorescent substrate molecules that increased with the use of avidin as a reaction terminator were assayed by fluorescence polarization.
The test compound was dissolved in DMF, and the resultant was diluted 5-fold with an assay buffer. 6.5 μl thereof was added to wells of a 96-well plate (a U-bottomed 96-well plate, Coster) that had previously been blocked with a blocking solution (10 mM Tris-HCl (pH 8.0), 150 mM sodium chloride, 0.05% Tween 20, 1 mg/ml of BSA). The enzyme was diluted to 21.3 μg/ml with an assay buffer (1M sodium citrate, 50 mM sodium phosphate (pH 7.4), 100 mM sodium chloride, 20% glycerol, 2 mM TCEP), and 48.5 μl of the resultant was added to each well. The plate was incubated at room temperature for 30 minutes, and 10 μl of 62.5 μg/ml substrate solution was then added to each well. The plate was incubated at room temperature for 60 minutes, and 50 μl of 2 mg/ml avidin phosphate buffer solution (50 mM sodium phosphate, 100 mM sodium chloride (pH 7.4)) was added to each well. The activity was determined in comparison with a compound without protease inhibitor using a microplate reader for fluorescence polarization.
HSV-1 protease was purified from a vaculovirus that had expressed a DNA construct encoding the reading frame for HSV-1UL26. This construct had further encoded 6 histidine residues at the amino terminus of the protease. These additional histidine residues impart affinity ligands purified by nickel-nitriloacetic acid-agarose (Qiagen). The purified protease was stored as a stock solution for a 20 mM HEPES buffer (pH 8.5, containing 20% v/v glycerin). This stock solution was diluted with an assay buffer and then used in the enzyme reaction.
In accordance with the cleavage specificity of the HSV-1 protease at the “release site” of the assembled protein, a specific substrate was synthesized (Diianni et al., J. Biol. Chem. 268, 2048 (1993)). This assembly protein-release site had the sequence • HTYLQA*SEKFKMW • , and the substrate used was biotin-gamma-amino butyrate-HTYLQA*SERFRIK-DTAF. This is a standard method for peptide synthesis, for example, as in the a method described in “The Practice of Peptide Synthesis” (Bodansky and Bodansky (1984)). The product was stored as a 2.5 mg/ml stock solution in DMF. The resultant was diluted to 62.5 μg/ml with a phosphate buffer (50 mM sodium phosphate, 100 mM sodium chloride, (pH 7.4)) immediately before its use.
An assay buffer (1M sodium citrate, 50 mM sodium phosphate (pH 7.4), 100 mM sodium chloride, 20% glycerol, 2 mM TCEP) was used to dilute a stock solution for the enzyme and that for the inhibitor.

HSV-1 = experiment: Antiviral activity, HSV-1 in Vero cells, plaque method; type: cell-based; conditions: 90% inhibition of plaque formation
Description: An Assay Method for Antiviral Activity These complementary assay methods examine the capacity of a compound to inhibit the generation of new viruses and to inhibit the toxicity of the compound against the host cell. Toxicity indirectly decreases the generation of viruses. Thus, it is important to simultaneously conduct both assays in order to directly compare the results. The Vero cells were sown on a 96-well plate and then cultured overnight. The culture supernatant was removed, and 100 μl of 2% FBS-DMEM containing 50,000 plaque-forming units (hereinafter abbreviated as “pfu”) of HSV-1 was added. A viral solution was removed and 200 μl of 2% FBS-DMEM comprising a test compound was added. In this case, a substance to which 2% FBS-DMEM not comprising any test compound had been added was determined as a control. These infected cells were incubated in the presence of 5% CO2 at 37° C. for 20 hours, and the medium was once allowed to freeze at −80° C. The culture solution was dissolved, and the amount of viruses in the culture solution was assayed by the plaque method. The concentration of the test compound when it inhibited 90% of plaque formation relative to the control was determined to be EC 90.

[1] = Human alphaherpesvirus 1, 20 hours

T1 sequence (P10210 1-247): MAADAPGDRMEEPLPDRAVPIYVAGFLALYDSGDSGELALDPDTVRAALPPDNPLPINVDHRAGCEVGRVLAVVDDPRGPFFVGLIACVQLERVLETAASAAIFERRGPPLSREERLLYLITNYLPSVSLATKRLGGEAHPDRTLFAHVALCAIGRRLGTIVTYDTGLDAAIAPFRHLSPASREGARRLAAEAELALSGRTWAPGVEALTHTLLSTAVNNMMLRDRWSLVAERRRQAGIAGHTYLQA

Row | SMILES | IC50 (HSV-1 protease) [nM] | EC90 (HSV-1; [1]) [nM] | EC90 (HSV-1; 20 hours) [nM]
1 | Cc1c(NC(=O)CCNC(=O)c2ccc(C(F)(F)F)cc2)ccc2nc(N[C@@H](C)C(=O)N(C)CCc3ccccn3)oc(=O)c12 [Compound No.216, N-[2-(5-Methyl-2-{1S-[methyl-(2-pyridin-2-yl-ethyl)-carbamoyl]-ethylamino}-4-oxo-4H-benzo[d][1,3]oxazin-6-ylcarbamoyl)-ethyl]-4-trifluoromethyl-benzamide] | 3000 | > 12500 | 
2 | Cc1c(NC(=O)CCCNC(=O)c2cccs2)ccc2nc(N[C@@H](C)C(=O)N(C)CCc3ccccn3)oc(=O)c12 [Compound No.218, Thiophene-2-carboxylic acid [3-(5-methyl-2-{1S-[methyl-(2-pyridin-2-yl-ethyl)-carbamoyl]-ethylamino}-4-oxo-4H-benzo[d][1,3]oxazin-6-ylcarbamoyl)-propyl]-amide] | 400 | > 12500 | 
3 | CCCCc1ccc(C(=O)NCCCC(=O)Nc2ccc3nc(NC(C)(C)C(=O)N(C)CCc4ccccn4)oc(=O)c3c2C)cc1 [Compound No.214, 4-Butyl-N-[3-(5-methyl-2-{1-methyl-1-[methyl-(2-pyridin-2-yl-ethyl)-carbamoyl]-ethylamino}-4-oxo-4H-benzo[d][1,3]oxazin-6-ylcarbamoyl)-propyl]-benzamide] | 300 | > 12500 | 
4 | Cc1c(NC(=O)CCNC(=O)c2cccs2)ccc2nc(N[C@@H](C)C(=O)N(C)CCc3ccccn3)oc(=O)c12 [Compound No.215, Thiophene-2-carboxylic acid [2-(5-methyl-2-{1S-[methyl-(2-pyridin-2-yl-ethyl)-carbamoyl]-ethylamino}-4-oxo-4H-benzo[d][1,3]oxazin-6-ylcarbamoyl)-ethyl]-amide] | 3200 | > 12500 | 
5 | CCC(CC)C(=O)Nc1ccc2nc(NC(C)(C)C(=O)N(C)CCc3ccccn3)oc(=O)c2c1C [Compound No.197, 2-Ethyl-N-(5-methyl-2-{1-methyl-1-[methyl-(2-pyridin-2-yl-ethyl)-carbamoyl]-ethylamino}-4-oxo-4H-benzo[d][1,3]oxazin-6-yl)-butylamide] | 7200 |  | ≥ 12500
6 | CCCCc1ccc(C(=O)NCCC(=O)Nc2ccc3nc(NC(C)(C)C(=O)N(C)CCc4ccccn4)oc(=O)c3c2C)cc1 [Compound No.211, 4-Butyl-N-[2-(5-methyl-2-{1-methyl-1-[methyl-(2-pyridin-2-yl-ethyl)-carbamoyl]-ethylamino}-4-oxo-4H-benzo[d][1,3]oxazin-6-ylcarbamoyl)-ethyl]-benzamide] | 700 | > 12500 | 
7 | Cc1c(NC(=O)CCNC(=O)c2ccc(C(F)(F)F)cc2)ccc2nc(NC(C)(C)C(=O)N(C)CCc3ccccn3)oc(=O)c12 [Compound No.210, N-[2-(5-Methyl-2-{1-methyl-1-[methyl-(2-pyridin-2-yl-ethyl)-carbamoyl]-ethylamino}-4-oxo-4H-benzo[d][1,3]oxazin-6-ylcarbamoyl)-ethyl]-4-trifluoromethyl-benzamide] | 700 | > 12500 | 
8 | Cc1c(NC(=O)OC(C)(C)C)ccc2nc(NC3(C(=O)N(C)Cc4ccncc4)CCCC3)oc(=O)c12 [Compound No.121, {5-Methyl-2-[1-(methyl-pyridin-4-ylmethyl-carbamoyl)-cyclopentylamino]-4-oxo-4H-benzo[d][1,3]oxazin-6-yl}-carbamic acid tert-butyl ester] | 2800 | 11500 | 

Second part, led by results:

Row | IC50 (HSV-1 protease) [nM] | EC90 (HSV-1; [1]) [nM] | SMILES | EC90 (HSV-1; 20 hours) [nM]
9 | 400 | > 12500 | Cc1c(NC(=O)CCCNC(=O)OC(C)(C)C)ccc2nc(NC(C)(C)C(=O)N(C)CCc3ccccn3)oc(=O)c12 [Compound No.203, [3-(5-Methyl-2-{1-methyl-1-[methyl-(2-pyridin-2-yl-ethyl)-carbamoyl]-ethylamino}-4-oxo-4H-benzo[d][1,3]oxazin-6-ylcarbamoyl)-propyl]-carbamic acid tert-butyl ester] | 
10 | 700 | > 20000 | Cc1c(NC(=O)CCNC(=O)OC(C)(C)C)ccc2nc(NCC(=O)N(C)CCc3ccccn3)oc(=O)c12 [Compound No.228, {2-[5-Methyl-2-({[methyl-(2-pyridin-2-yl-ethyl)-carbamoyl]-methyl}-amino)-4-oxo-4H-benzo[d][1,3]oxazin-6-ylcarbamoyl]-ethyl}-carbamic acid tert-butyl ester] | 
11 | 1000 | > 20000 | Cc1c(NC(=O)CCNC(=O)OC(C)(C)C)ccc2nc(N(C)CC(=O)N(C)CCc3ccccn3)oc(=O)c12 [Compound No.226, {2-[5-methyl-2-(methyl-{[methyl-(2-pyridin-2-yl-ethyl)-carbamoyl]-methyl}-amino)-4-oxo-4H-benzo[d][1,3]oxazin-6-ylcarbamoyl]-ethyl}-carbamic Acid Tert-Butyl Ester] | 
12 | 600 | 9600 | Cc1c(NC(=O)OC(C)(C)C)ccc2nc(NC3(C(=O)N(C)CCc4ccccn4)CCCC3)oc(=O)c12 [Compound No.123, (5-Methyl-2-{1-[methyl-(2-pyridin-2-yl-ethyl)-carbamoyl]-cyclopentylamino}-4-oxo-4H-benzo[d][1,3]oxazin-6-yl)-carbamic acid tert-butyl ester] | 
13 | 400 | > 20000 | Cc1c(NC(=O)OC(C)(C)C)ccc2nc(N(C)CC(=O)N(C)CCc3ccccn3)oc(=O)c12 [Compound No.131, [5-Methyl-2-(methyl-{[methyl-(2-pyridin-2-yl-ethyl)-carbamoyl]-methyl}-amino)-4-oxo-4H-benzo[d][1,3]oxazin-6-yl]-carbamic acid tert-butyl ester] | 
14 | 500 | > 12500 | Cc1c(NC(=O)CCNC(=O)OCc2ccccc2)ccc2nc(NC(C)(C)C(=O)N(C)CCc3ccccn3)oc(=O)c12 [Compound No.202, [2-(5-Methyl-2-{1-methyl-1-[methyl-(2-pyridin-2-yl-ethyl)-carbamoyl]-ethylamino}-4-oxo-4H-benzo [d][1,3]oxazin-6-ylcarbamoyl)-ethyl]-carbamic acid benzyl ester] | 
15 | 400 | 8600 | Cc1c(NC(=O)OC(C)(C)C)ccc2nc(NC3(C(=O)N(C)CCc4cccnc4)CCCC3)oc(=O)c12 [Compound No.126, (5-Methyl-2-{1-[methyl-(2-pyridin-3-yl-ethyl)-carbamoyl]-cyclopentylamino}-4-oxo-4H-benzo[d][1,3]oxazin-6-yl)-carbamic acid tert-butyl ester] | 
16 | 400 | > 20000 | Cc1c(NC(=O)OC(C)(C)C)ccc2nc(NCC(=O)N(C)CCc3ccccn3)oc(=O)c12 [Compound No.130, [5-methyl-2-({[methyl-(2-pyridin-2-yl-ethyl)-carbamoyl]-methyl}-amino)-4-oxo-4H-benzo[d][1,3]oxazin-6-yl]-carbamic Acid Tert-Butyl Ester] | 
17 | 700 | > 12500 | Cc1c(NC(=O)OC(C)(C)C)ccc2nc(NC3(C(=O)N(C)Cc4cccnc4)CCCC3)oc(=O)c12 [Compound No.119, {5-Methyl-2-[1-(methyl-pyridin-3-ylmethyl-carbamoyl)-cyclopentylamino]-4-oxo-4H-benzo[d][1,3]oxazin-6-yl}-carbamic acid tert-butyl ester] | 
18 | 1800 | > 12500 | Cc1c(NC(=O)OC(C)(C)C)ccc2nc(NC3(C(=O)N(C)CCc4ccncc4)CC3)oc(=O)c12 [Compound No.127, (5-Methyl-2-{1-[methyl-(2-pyridin-4-yl-ethyl)-carbamoyl]-cyclopropylamino}-4-oxo-4H-benzo[d][1,3]oxazin-6-yl)-carbamic acid tert-butyl ester] | 
